# Laboratory results as given in ChEMBL document CHEMBL4028838, “Structure-related protein tyrosine phosphatase 1B inhibition by naringenin derivatives” (Bioorg Med Chem Lett, 2017).
# What was measured:
# [1] = Inhibition of alpha-glucosidase (unknown origin)
# HepG2 [2] = assay: Anti-diabetic activity in insulin-resistant human HepG2 cells assessed as increase in insulin-stimulated 2-NBDG uptake at 10 uM pretreated for 24 hrs followed by 2-NBDG addition measured after 30 mins by fluorescence assay relative to control; type: functional
# [3] = molecular target: T1, Tyrosine-protein phosphatase non-receptor type 1 (Homo sapiens, UniProt P18031); assay: Inhibition of PTP1B (unknown origin) using pNPP as substrate pretreated for 10 mins followed by substrate addition measured after 20 mins by spectrophotometric method
# T1 sequence (P18031 whole entry): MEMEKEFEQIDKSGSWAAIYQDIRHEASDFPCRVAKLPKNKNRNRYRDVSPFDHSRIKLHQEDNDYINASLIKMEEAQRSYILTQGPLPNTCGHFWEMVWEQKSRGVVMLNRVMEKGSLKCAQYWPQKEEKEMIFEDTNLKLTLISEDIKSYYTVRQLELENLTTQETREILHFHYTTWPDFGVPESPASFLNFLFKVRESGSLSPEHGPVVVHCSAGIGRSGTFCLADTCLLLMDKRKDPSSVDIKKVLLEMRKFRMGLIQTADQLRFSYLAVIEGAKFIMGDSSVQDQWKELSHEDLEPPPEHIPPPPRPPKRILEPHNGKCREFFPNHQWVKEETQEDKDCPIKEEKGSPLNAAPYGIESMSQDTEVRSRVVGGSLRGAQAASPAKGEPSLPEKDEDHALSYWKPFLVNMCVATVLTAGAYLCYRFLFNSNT
# HepG2 [4] = assay: Anti-diabetic activity in insulin-resistant human HepG2 cells assessed as increase in insulin-stimulated 2-NBDG uptake pretreated for 24 hrs followed by 2-NBDG addition measured after 30 mins by fluorescence assay; type: functional, cell-based
# HepG2 [5] = assay: Anti-diabetic activity in insulin-resistant human HepG2 cells assessed as increase in insulin-stimulated 2-NBDG uptake at 50 uM pretreated for 24 hrs followed by 2-NBDG addition measured after 30 mins by fluorescence assay relative to control; type: functional
Structure (SMILES),IC50 [1],Activity (HepG2 [2]),IC50 [3],Activity (HepG2 [4]),Activity (HepG2 [5])
C[C@H]1O[C@H](O[C@H]2[C@H](O)[C@@H](O)[C@@H](O[C@H]3[C@H](O)[C@@H](O)C(O)O[C@@H]3CO)O[C@@H]2CO)[C@H](O)[C@@H](O)[C@@H]1N[C@H]1C=C(CO)[C@@H](O)[C@H](O)[C@H]1O (stereo partly drawn) [ACARBOSE],178 µM,–,–,–,–
CN(C)C(=N)NC(=N)N [METFORMIN],–,125%,–,–,–
O=C1C[C@@H](c2ccc(O)cc2)Oc2cc(O)cc(O)c21 [NARINGENIN],10.6 µM,–,130 µM,Dose-dependent effect,71.23%
C[C@@H]1O[C@@H](O[C@H]2[C@H](Oc3cc(O)c4c(c3)O[C@H](c3ccc(O)cc3)CC4=O)O[C@H](CO)[C@@H](O)[C@@H]2O)[C@H](O)[C@H](O)[C@H]1O [NARINGIN],> 200 µM,–,91.8 µM,Dose-dependent effect,82.17%
C[C@@H]1O[C@@H](OC[C@H]2O[C@@H](Oc3cc(O)c4c(c3)O[C@H](c3ccc(O)cc3)CC4=O)[C@H](O)[C@@H](O)[C@@H]2O)[C@H](O)[C@H](O)[C@H]1O [NARIRUTIN],> 200 µM,–,56.5 µM,Dose-dependent effect,86.93%
O=C1C[C@@H](c2ccc(O)cc2)Oc2cc(O[C@@H]3O[C@H](CO)[C@@H](O)[C@H](O)[C@H]3O)cc(O)c21 [PRUNIN],106 µM,–,17.5 µM,Dose-dependent effect,109.45%
